Read-outs that look alike come from different tables or passages of the source.
Target: T1, human LPA1 (Homo sapiens, UniProt Q92633)
T1 construct: expressed in transfected cells; host or cells: CHO-K1
Test: In vitro LPA1 calcium flux antagonist assay - Bioduro protocol
Type: cell-based
Settings: CHO-K1 cells overexpressing human LPA1 and G15a, LPA challenge at EC80
Procedure: In Vitro LPA1 Calcium Flux Antagonist Assay—Bioduro Protocol
CHO-K1 cells overexpressing human LPA1 and G15a were seeded at a total volume of 20 μL (15000 cells/well) into Matrigel pre-coated 384-well plates (corning −3764) and incubated at 37° C. After overnight incubation, the cells were serum starved for 4 h. Assays were performed in dye loading buffer containing 1× Fluo-8 AM (AAT Bioquest, 21080) and 2.5 mM probenecid (Thermo Fisher, 36400) in HBSS/20 mM Hepes. After cell starvation, the medium was replaced with 20 μL of dye loading buffer and incubated at 37° C., for 30 min. Then 5 μL of 5× compound titrated in dye loading buffer was added to the cells and incubated for 30 min followed by LPA challenge at EC80. Calcium mobilization was measured on a FLIPR Tetra (MSD). For LPA EC80 determination, starved cells were incubated with 20 μL of dye loading buffer for 1 h, then 5 μL of 5×LPA titrated in dye loading buffer was added to the cells. Calcium signals induced by LPA was monitors on a FLIPR.
Percentage inhibition is calculated using the following formula: % Inhibition=100%×(1−(mean RFU of test sample−mean RFU of DMSO)/(mean RFU of LPA control−mean RFU of DMSO)).
Table B3 and Table B4 show the biological activity of compounds in in vitro LPA1 Calcium flux antagonist assay—Bioduro protocol.

[1] = calcium mobilization on FLIPR Tetra, read-out: IC50
[2] = Table B3, read-out: Activity (IC50 class)

T1 sequence (Q92633 whole entry): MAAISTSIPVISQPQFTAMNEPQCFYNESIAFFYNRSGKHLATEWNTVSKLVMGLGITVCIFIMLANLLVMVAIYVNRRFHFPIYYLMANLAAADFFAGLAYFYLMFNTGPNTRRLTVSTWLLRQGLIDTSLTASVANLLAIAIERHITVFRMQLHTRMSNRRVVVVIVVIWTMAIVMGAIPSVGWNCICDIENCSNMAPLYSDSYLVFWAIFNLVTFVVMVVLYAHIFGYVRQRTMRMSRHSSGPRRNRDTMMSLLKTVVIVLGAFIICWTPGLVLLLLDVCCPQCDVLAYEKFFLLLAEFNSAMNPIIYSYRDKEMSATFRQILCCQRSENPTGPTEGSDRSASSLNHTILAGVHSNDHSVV

SMILES | IC50 [1] [µM] | IC50 [2] [µM]
COc1cc(-c2ccc(NCCC(=O)O)cc2COCCc2ccccc2)cc(OC)c1C [Compound 106] | 3.48 | > 1
COc1cc(-c2ccc(NC3(C(=O)O)CC(O)C3)cc2COC2Cc3ccccc3C2)cc(OC)c1C (stereo not shown) [Compound 130] | 0.191 | 0.1 to 1
COC(=O)N1CC(Nc2ccc(-c3cc(OC)c(C)c(OC)c3)c(COC3CCCC3)c2)(C(=O)O)C1 [Compound 144] | 0.0595 | < 0.1
COc1cc(-c2ccc(NC3(C(=O)O)CCOCC3)cc2COCC(C)C)c(F)c(OC)c1C [Compound 336] | 0.0188 | < 0.1
CCOc1cccc(-c2ccc(NC3(C(=O)O)CC3)cc2COC2CC2)c1C(F)F [Compound 359] | 0.0498 | < 0.1
COCC1CC(Nc2ccc(-c3cc(OC)c(C)c(OC)c3)c(COC3Cc4ccccc4C3)c2)(C(=O)O)C1 (stereo not shown) [Compound 143] | 0.0538 | < 0.1
COc1cc(-c2ccc(NC3(C(=O)O)CCOCC3)cc2COC2CCCC2)cc(O)n1 [Compound 218] | > 10 | > 1
COc1cc(-c2ccc(NC3(C(=O)O)CCOCC3)cc2COC2CCCC2)ccc1C [Compound 145] | 0.486 | 0.1 to 1
COc1cc(OC)c(F)c(-c2ccc(NC3(C(=O)O)CCOCC3)cc2COC2CC2)c1 [Compound 292] | 0.117 | 0.1 to 1
CCOc1cccc(-c2ccc(NC3(C(=O)O)CCC(F)(F)CC3)cc2COC2CC2)c1C(F)F [Compound 384] | 0.000803 | < 0.1
CCOc1cccc(-c2ccc(NC3(C(=O)O)CCOCC3)cc2COC2CCCC2)c1C [Compound 229, 4-((2-((cyclopentyloxy)methyl)-3′-ethoxy-2′-methyl-[1,1′-biphenyl]-4-yl)amino)tetrahydro-2H-pyran-4-carboxylic acid] | 0.00528 | < 0.1
COc1cc(-c2ccc(NC3(C(=O)O)CCOCC3)c(F)c2COC2CCCC2)c(F)c(OC)c1C [Compound 227] | 0.025 | < 0.1
COc1cc(-c2ccc(NC3(C(=O)O)CCOCC3)cc2COC2CCCC2)c(F)c(OC)c1C(C)O (stereo not shown) [Compound 299] | 0.0384 | < 0.1
CCCc1cccc(-c2ccc(NC3(C(=O)O)CCOCC3)cc2COC2CCCC2)c1F [Compound 286] | 0.00987 | < 0.1
COc1cc(-c2ccc(NC3(C(=O)O)CCOCC3)cc2COC2CCCC2)c(Cl)c(OC)c1C [Compound 166] | 0.00931 | < 0.1
COc1cc(-c2ccc(NC3(C(=O)O)CCOCC3)cc2COC2(C)CCCC2)c(C)c(OC)c1C [Compound 212] | 0.0112 | < 0.1
COc1cc(-c2ccc(NC3(C(=O)O)CCOCC3)cc2COCCC(C)C)c(F)c(OC)c1C [Compound 351] | 0.00463 | < 0.1
COc1cc(OC)c(C)c(-c2ccc(NC3(C(=O)O)CCOCC3)cc2COC2CCCC2)c1 [Compound 179] | 0.0249 | < 0.1
COc1cc(-c2ccc(NC3(C(=O)O)CCOCC3)cc2COCC(C)C)c(C)c(OC)c1C [Compound 397] | 0.073 | < 0.1
COc1cc(-c2ccc(OC3(C(=O)O)CCOCC3)cc2COC2CCCC2)c(Cl)c(OC)c1C [Compound 192, 4-((2′-chloro-2-((cyclopentyloxy)methyl)-3′,5′-dimethoxy-4′-methyl-[1,1′-biphenyl]-4-yl)oxy)tetrahydro-2H-pyran-4-carboxylic acid] | 0.0151 | < 0.1
CCCCOCc1cc(NC2(C(=O)O)CCOCC2)ccc1-c1cc(OC)cc(OC)c1Cl [Compound 402] | 0.00759 | < 0.1
Cc1ccc(-c2ccc(NC3(C(=O)O)CCOCC3)cc2COC2CC2)c(F)c1OC1CC1 [Compound 392] | 0.00944 | < 0.1
COC(=O)N1CCC(Nc2cc(C)c(-c3cc(OC)cc(OC)c3)c(COC3CCCC3)c2)(C(=O)O)CC1 [Compound 154] | 0.224 | 0.1 to 1

Source: US11884627B2, “Compounds and compositions for treating conditions associated with LPA receptor activity” (Lhotse Bio, Inc., priority 2022, dated 2024)
